According to patent publication US20070286898A1, “Intracellular Drug Delivery Improving Liposome” (ASTELLAS PHARMA INC., priority 2004, published 2007):

Test system: Ehrlich's ascites carcinoma cell
Test: Cell-killing effect upon Ehrlich's ascites carcinoma cell using WST
Type: cell-based
Conditions: 1×10^6 cells, read-out: IC50 (doxorubicin concentration by which 50% of cell-killing effect is obtained)
Protocol: The preparations prepared in Examples 1 and 2 and Comparative Examples 1, 2 and 3 were adjusted to various concentrations, and the resulting liquids were added to Ehrlich's ascites carcinoma cell (1×10^6 cells) to examine their cell-killing effects using WST.
Based on the results of plotting a relationship between the doxorubicin concentration in each preparation and its cell-killing effect, the doxorubicin concentration by which 50% of cell-killing effect is obtained was calculated (Table 1). By this, it was shown that the liposome preparations of the present invention show significant pharmacological effect in comparison with Comparative Examples.

COc1cccc2c1C(=O)c1c(O)c3c(c(O)c1C2=O)C[C@@](O)(C(=O)CO)C[C@@H]3O[C@H]1C[C@H](N)[C@H](O)[C@H](C)O1 [Comparative Example 3, doxorubicin]
IC50: 3.45 µM
